The values that follow come from patent US20240100170A1, “CYCLIC-AMP RESPONSE ELEMENT BINDING PROTEIN (CBP) AND/OR ADENOVIRAL E1A BINDING PROTEIN OF 300 KDA (P300) DEGRADATION COMPOUNDS AND METHODS OF USE” (CULLGEN (SHANGHAI), INC., priority 2020, published 2024).

pIC50: −log10 of the molar value. Entries after “also recorded” stand apart in the source; their conditions may differ. A value given as a limit tells only on which side of the number the result lay.

The target of assay [1] is T1, CBP (Homo sapiens, UniProt Q92793). The experiment in a line: CBP protein level by immunoblotting in LNCaP cells. The note with it: single dose, FIG. 8. On the set-up: LNCaP or 22RV1 cells that express CBP/P300 proteins were treated with GNE-781 or the bivalent compounds; endogenous in cells; host or cells: LNCaP (clone FGC). The class given is cell-based. As to the method: (§1) Specific exemplary bivalent compounds were characterized in LNCaP or 22RV1 cells. LNCaP or 22RV1 cells that express CBP/P300 proteins were treated with GNE-781 or the bivalent compounds disclosed herein (P-001 to P-265) for indicated hours. Cells were collected, lysed and subject to immunoblotting using an antibody specific to P300 or CBP proteins. Tubulin or vinculin was included as the loading control. DMSO was used as the negative control.
(§2) LNCaP (clone FGC), 22RV1 and other cells were cultured at 37° C. with 5% CO 2 in RPMI 1640 Medium supplemented with 10% fetal bovine serum. Cells were authenticated using the short tandem repeat (STR) assays. Mycoplasma test results were negative.
(§3) Cultured cells or tissue chunks were washed with cold PBS once and lysed in cold RIPA buffer supplemented with protease inhibitors and phosphatase inhibitors (Beyotime Biotechnology). The solutions were then incubated at 4° C. for 30 minutes with gentle agitation to fully lyse cells. Cell lysates were centrifuged at 13,000 rpm for 10 minutes at 4° C. and pellets were discarded. Total protein concentrations in the lysates were determined by BCA assays (Beyotime Biotechnology). Cell lysates were mixed with Laemmli loading buffer to 1 X and heated at 99° C. for 5 min. Proteins were resolved on SDS-PAGE and visualized by chemiluminescence. Images were taken by a ChemiDoc MP Imaging system (Bio-Rad). Protein bands were quantitated using the accompanied software provided by Bio-Rad.
Background: A western blot detects proteins with antibodies after separation by electrophoresis.

In assay [2] the target is T2, P300 (Homo sapiens, UniProt Q09472). Kind of assay: P300 immunoblotting in 22RV1 subcutaneous xenograft tumors. The assay is classed as in vivo, athymic nude mice. On the set-up: from tissue; host or cells: 22RV1 subcutaneous xenograft tumours in athymic nude mice. To be noted: single dose 40 mg/kg, intraperitoneally or orally, six hours after administration; FIG. 9. On the procedure: (§4) In addition to cultured cells, athymic nude mice bearing 22RV1 subcutaneous xenograft tumors at the right flank were intraperitoneally or orally treated with 40 mg/kg bivalent compounds. Six hours after drug administration, animals were sacrificed for immunoblotting of P300 and CBP in homogenized xenograft tumor masses. […] Moreover, ICR mice were orally treated with 40 mg/kg bivalent compounds. Six hours after drug administration, animals were sacrificed for immunoblotting of CBP in homogenized lung tissues.
(§5) Athymic nude mice bearing 22RV1 subcutaneous xenograft tumors at the right flank were intraperitoneally or orally treated with selected bivalent compounds at 40 mg/kg. Six hours after drug administration, animals were sacrificed, and xenograft tumors were collected for immunoblotting of P300 and CBP.
as §3
(§6) All animal experiments were performed under protocols approved by the Institutional Animal Care and Use Committee (IACUC) of Cullgen. Athymic nude mice (male, 5-weeks old) received 5 million 22RV1 cells subcutaneously inoculated at the right flank site. Twenty days following inoculation, tumors were approxmiately 500 mm^3 in size. Tumor-bearing mice were treated intraperitoneally or via oral gavage with vehicle or bivalent compounds at indicated doses. […]

In assay [3] the target is T1, CBP. The experiment in a line: CBP immunoblotting in 22RV1 subcutaneous xenograft tumors. On the set-up: from tissue; host or cells: 22RV1 subcutaneous xenograft tumours in athymic nude mice. The note with it: single dose 40 mg/kg, intraperitoneally or orally, six hours after administration; FIG. 9. The assay is classed as in vivo, athymic nude mice. As to the method:
as §4, §5, §3, §6

Assay [4] deals with T2, P300. Kind of assay: P300 protein level by immunoblotting in LNCaP cells. The class given is cell-based. On the set-up: LNCaP or 22RV1 cells that express CBP/P300 proteins were treated with GNE-781 or the bivalent compounds; endogenous in cells; host or cells: LNCaP or 22RV1 (not given). The note with it: for degradation of P300 in combination with pomalidomide, MG-132, Bortezomib or MLN4924: single dose, FIG. 8. On the procedure:
as §1, §2, §3

The target in assay [5] is T2, P300. Kind of assay: P300 protein level by immunoblotting in 22RV1 cells. The class given is cell-based. On the set-up: LNCaP or 22RV1 cells that express CBP/P300 proteins were treated with GNE-781 or the bivalent compounds; endogenous in cells; host or cells: LNCaP or 22RV1 (not given). To be noted: various concentrations, compound vs analogue that lost cereblon binding, FIG. 7B. On the procedure: as §1, §2
as §3, with “Proteins were resolved on SDS-PAGE and visualized by chemiluminescence. Images were taken by a ChemiDoc MP Imaging system (Bio-Rad).” left out

In assay [6] the target is T2, P300. The experiment in a line: percentage of inhibition (degradation) of p300 at 10 nM, Tables 2-4. To be noted: p300, 10 nM; Table 4; read-out: Degradation (10 nM). The arrangement: LNCaP or 22RV1 cells that express CBP/P300 proteins were treated with GNE-781 or the bivalent compounds; endogenous in cells; host or cells: LNCaP or 22RV1 (not given). The class given is cell-based. The gist of the method: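 Degradation was measured at 10 nM. Cells or tissue were lysed in RIPA with protease and phosphatase inhibitors for 30 min at 4 °C and cleared, and protein was quantified by BCA. Lysates were resolved by SDS-PAGE, detected by chemiluminescent immunoblot, and bands were quantified by densitometry.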

The test system of assay [7] is LNCaP prostate cancer cell. The experiment in a line: LNCaP cell viability (CellTiter-Glo). The assay is classed as cell-based. To be noted: Homo sapiens, 72 h; LNCaP cell viability, 3 days, CellTiter-Glo; Table 4. The essentials:
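LNCaP cells (5000/well, RPMI 1640 + 10% FBS, 37 °C) treated with compounds in 12-point 3-fold serial dilution for three days. Viability read by CellTiter-Glo luminescence, normalized to untreated cells; IC50 from least-squares nonlinear regression.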
For orientation: ATP-based viability assays read luminescence as a measure of living cells.

T2 sequence (Q09472 whole entry): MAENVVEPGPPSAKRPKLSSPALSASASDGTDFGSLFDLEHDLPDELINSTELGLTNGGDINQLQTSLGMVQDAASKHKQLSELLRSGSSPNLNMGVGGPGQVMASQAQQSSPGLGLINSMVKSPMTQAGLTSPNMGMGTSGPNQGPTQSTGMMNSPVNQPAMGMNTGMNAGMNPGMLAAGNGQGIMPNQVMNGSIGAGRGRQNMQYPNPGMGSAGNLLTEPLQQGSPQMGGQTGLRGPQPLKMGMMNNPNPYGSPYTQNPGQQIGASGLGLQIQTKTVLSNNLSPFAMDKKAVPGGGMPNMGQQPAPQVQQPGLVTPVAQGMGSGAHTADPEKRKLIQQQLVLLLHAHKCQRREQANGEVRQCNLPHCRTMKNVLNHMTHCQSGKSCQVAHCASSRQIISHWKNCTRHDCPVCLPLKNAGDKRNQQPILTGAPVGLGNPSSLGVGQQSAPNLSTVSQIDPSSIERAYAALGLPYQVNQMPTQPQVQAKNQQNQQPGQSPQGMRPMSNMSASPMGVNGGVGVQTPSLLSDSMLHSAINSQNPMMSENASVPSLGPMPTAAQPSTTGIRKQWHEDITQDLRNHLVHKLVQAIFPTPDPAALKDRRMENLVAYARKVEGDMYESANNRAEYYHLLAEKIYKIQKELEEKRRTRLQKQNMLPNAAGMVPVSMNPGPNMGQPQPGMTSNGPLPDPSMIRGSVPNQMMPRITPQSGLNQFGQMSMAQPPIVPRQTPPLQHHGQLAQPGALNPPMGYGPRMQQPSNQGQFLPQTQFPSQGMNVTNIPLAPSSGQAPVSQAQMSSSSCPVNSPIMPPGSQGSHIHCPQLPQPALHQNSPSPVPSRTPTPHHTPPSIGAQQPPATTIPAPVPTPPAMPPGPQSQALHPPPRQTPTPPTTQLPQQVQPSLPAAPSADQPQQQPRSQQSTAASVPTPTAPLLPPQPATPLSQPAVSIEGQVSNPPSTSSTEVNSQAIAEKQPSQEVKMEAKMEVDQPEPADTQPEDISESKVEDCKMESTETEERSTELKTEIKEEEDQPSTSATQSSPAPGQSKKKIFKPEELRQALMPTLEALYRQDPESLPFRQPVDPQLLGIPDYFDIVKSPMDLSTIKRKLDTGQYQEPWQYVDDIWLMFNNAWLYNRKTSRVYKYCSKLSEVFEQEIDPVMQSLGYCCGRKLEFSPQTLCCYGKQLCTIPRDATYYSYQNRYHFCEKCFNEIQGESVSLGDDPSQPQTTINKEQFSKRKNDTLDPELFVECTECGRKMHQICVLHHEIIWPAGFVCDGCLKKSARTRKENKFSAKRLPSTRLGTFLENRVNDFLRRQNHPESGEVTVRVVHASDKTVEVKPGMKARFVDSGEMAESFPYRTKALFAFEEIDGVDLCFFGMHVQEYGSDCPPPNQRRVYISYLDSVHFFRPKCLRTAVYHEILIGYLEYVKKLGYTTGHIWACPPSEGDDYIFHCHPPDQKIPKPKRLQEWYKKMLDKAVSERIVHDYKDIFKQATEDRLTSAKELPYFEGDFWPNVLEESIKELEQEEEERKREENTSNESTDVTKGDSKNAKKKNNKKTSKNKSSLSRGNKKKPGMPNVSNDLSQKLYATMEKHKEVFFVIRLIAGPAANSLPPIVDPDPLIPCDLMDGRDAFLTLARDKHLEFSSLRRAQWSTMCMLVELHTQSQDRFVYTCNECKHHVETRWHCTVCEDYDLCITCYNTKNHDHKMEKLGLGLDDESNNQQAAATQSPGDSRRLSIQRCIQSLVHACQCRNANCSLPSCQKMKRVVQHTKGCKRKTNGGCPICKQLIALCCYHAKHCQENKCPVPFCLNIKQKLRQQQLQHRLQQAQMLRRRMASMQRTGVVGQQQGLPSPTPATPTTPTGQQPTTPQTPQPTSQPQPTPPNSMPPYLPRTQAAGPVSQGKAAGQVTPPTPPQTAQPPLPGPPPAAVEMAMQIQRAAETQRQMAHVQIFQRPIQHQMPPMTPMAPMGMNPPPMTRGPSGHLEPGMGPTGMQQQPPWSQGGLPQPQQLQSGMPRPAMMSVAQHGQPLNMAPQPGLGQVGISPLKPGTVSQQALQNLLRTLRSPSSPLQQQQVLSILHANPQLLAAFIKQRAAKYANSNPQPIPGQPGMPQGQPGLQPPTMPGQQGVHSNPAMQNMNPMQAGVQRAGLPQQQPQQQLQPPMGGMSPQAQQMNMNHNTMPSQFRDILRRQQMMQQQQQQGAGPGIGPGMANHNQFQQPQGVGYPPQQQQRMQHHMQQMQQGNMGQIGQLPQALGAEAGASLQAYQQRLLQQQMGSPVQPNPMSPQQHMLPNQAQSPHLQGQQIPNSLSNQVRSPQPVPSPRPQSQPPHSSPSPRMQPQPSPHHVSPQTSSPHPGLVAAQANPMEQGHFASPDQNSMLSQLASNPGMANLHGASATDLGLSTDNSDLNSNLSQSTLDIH
T1 sequence (Q92793 whole entry): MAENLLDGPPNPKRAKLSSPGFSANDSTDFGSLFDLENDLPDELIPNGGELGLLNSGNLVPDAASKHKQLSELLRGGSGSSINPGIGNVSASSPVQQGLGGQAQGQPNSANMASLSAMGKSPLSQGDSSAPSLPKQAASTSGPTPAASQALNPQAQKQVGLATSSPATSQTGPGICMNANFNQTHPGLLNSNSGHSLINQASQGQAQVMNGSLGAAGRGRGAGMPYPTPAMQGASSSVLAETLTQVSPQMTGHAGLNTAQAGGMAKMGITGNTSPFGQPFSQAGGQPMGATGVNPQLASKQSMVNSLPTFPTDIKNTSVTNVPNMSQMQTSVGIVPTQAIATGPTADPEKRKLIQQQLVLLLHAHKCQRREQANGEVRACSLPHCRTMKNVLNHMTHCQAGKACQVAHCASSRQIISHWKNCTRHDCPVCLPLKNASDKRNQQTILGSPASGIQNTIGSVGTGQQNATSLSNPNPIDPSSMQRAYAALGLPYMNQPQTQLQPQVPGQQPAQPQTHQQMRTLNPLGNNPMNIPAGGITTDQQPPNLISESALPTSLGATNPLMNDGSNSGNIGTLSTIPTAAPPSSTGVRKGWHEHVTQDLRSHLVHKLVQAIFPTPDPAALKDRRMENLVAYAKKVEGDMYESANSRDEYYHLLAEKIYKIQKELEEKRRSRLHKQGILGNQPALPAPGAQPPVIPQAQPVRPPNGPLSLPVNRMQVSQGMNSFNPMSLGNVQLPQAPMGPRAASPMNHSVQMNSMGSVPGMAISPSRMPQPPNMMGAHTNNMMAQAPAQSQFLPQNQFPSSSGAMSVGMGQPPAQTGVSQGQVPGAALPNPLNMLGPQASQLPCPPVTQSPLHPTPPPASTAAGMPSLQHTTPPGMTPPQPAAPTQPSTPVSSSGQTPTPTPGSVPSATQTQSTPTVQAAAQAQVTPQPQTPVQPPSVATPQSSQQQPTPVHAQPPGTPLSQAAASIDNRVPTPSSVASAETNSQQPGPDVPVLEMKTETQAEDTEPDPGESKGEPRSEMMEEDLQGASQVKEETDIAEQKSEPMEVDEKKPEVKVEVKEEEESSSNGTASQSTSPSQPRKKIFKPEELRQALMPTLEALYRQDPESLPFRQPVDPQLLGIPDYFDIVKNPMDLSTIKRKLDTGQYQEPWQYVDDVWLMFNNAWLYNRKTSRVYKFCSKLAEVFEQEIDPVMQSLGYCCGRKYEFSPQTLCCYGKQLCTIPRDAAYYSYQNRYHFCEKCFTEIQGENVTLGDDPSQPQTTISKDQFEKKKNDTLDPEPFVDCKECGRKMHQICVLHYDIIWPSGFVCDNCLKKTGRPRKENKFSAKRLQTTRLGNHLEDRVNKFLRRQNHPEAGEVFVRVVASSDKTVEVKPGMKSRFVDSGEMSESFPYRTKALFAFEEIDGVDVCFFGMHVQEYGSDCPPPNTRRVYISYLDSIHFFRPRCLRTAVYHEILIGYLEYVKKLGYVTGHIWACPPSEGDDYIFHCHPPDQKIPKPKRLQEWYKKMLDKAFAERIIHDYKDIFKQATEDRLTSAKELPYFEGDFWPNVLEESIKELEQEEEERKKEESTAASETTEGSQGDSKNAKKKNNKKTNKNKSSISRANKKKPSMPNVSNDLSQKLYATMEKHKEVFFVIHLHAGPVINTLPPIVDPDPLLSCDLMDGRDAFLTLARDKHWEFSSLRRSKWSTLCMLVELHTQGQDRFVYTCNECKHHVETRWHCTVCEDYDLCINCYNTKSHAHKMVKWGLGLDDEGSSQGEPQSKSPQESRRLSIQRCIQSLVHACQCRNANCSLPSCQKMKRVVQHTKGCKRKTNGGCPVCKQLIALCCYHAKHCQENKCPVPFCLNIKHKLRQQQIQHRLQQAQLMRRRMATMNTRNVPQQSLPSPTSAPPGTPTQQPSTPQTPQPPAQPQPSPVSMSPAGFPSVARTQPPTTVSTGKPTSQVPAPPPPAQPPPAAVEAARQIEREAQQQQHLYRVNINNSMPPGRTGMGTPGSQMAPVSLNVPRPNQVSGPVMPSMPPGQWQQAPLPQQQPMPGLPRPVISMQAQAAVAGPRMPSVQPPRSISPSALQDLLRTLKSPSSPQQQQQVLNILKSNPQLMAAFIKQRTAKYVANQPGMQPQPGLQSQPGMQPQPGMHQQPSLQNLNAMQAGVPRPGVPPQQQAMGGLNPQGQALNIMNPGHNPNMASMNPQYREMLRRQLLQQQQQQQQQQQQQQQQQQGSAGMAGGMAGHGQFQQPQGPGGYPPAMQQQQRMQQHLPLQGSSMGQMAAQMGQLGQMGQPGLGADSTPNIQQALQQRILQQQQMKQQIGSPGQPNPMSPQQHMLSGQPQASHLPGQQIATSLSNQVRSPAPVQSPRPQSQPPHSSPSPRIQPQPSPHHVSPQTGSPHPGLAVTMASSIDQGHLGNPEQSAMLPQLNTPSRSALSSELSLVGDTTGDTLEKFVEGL

On to `CNC(=O)N1CCc2c(c(N3CCCc4cc(-c5cnn(C)c5)c(C(F)F)cc43)nn2C2CCN(C(=O)CCCCCCCNc3ccc4c(c3)C(=O)N(C3CCC(=O)NC3=O)C4=O)CC2)C1` (centres unmarked) [P-007, 3-(7-(difluoromethyl)-6-(1-methyl-1H-pyrazol-4-yl)-3,4-dihydroquinolin-1(2H)-yl)-1-(1-(8-((2-(2,6-dioxopiperidin-3-yl)-1,3-dioxoisoindolin-5-yl)amino)octanoyl)piperidin-4-yl)-N-methyl-1,4,6,7-tetrahydro-5H-pyrazolo[4,3-c]pyridine-5-carboxamide], for which, at CBP [1], the “degradation of CBP in combination with pomalidomide, MG-132, Bortezomib or MLN4924” value is “compromised; also recorded: could be neutralized”. The “P300 protein levels in xenograft tumors” value at P300 [2] is given as “significantly reducing”. Besides, the “CBP protein levels in xenograft tumors” value on CBP [3] is recorded as “significantly reducing”. Moreover, the “degradation of P300 in combination with pomalidomide, MG-132, Bortezomib or MLN4924” value at P300 [4] was “compromised; also recorded: could be neutralized”.
As to `CC(=O)N1CCc2c(c(N3CCCc4cc(-c5cnn(C)c5)c(C(F)F)cc43)nn2C2CCN(C(=O)CCCCCNc3cccc4c3C(=O)N(C3CCC(=O)NC3=O)C4=O)CC2)C1` (centres unmarked) [P-100, 4-((6-(4-(5-acetyl-3-(7-(difluoromethyl)-6-(1-methyl-1H-pyrazol-4-yl)-3,4-dihydroquinolin-1(2H)-yl)-4,5,6,7-tetrahydro-1H-pyrazolo[4,3-c]pyridin-1-yl)piperidin-1-yl)-6-oxohexyl)amino)-2-(2,6-dioxopiperidin-3-yl)isoindoline-1,3-dione], on CBP [1], the “degradation of CBP in combination with pomalidomide, MG-132, Bortezomib or MLN4924” value was “compromised; also recorded: could be neutralized”. The “P300 protein levels in xenograft tumors” value at P300 [2] was “significantly reducing”. In addition, at CBP [3], the “CBP protein levels in xenograft tumors” value was “significantly reducing”. For the same molecule, the P300 protein levels entry at P300 [5] is “reduced P300 protein levels in a concentration-dependent manner”; at P300 [4] (various concentrations, compound vs analogue that lost cereblon binding, FIG. 7A), “reduced P300 protein levels in a concentration-dependent manner”. The “degradation of P300 in combination with pomalidomide, MG-132, Bortezomib or MLN4924” value at P300 [4] is recorded as “compromised; also recorded: could be neutralized”.
What is called pIC50 is −log10 of the IC50, conventionally taken in molar units. Consider `CC(=O)N1CCc2c(c(N3CCCc4cc(-c5cnn(C)c5)c(C(F)F)cc43)nn2C2CCN(C(=O)CCCN3CCC(CCc4ccc5c(c4)n(C)c(=O)n5C4CCC(=O)NC4=O)CC3)CC2)C1` (centres unmarked) [P-222, 3-(5-(2-(1-(4-(4-(5-acetyl-3-(7-(difluoromethyl)-6-(1-methyl-1H-pyrazol-4-yl)-3,4-dihydroquinolin-1(2H)-yl)-4,5,6,7-tetrahydro-1H-pyrazolo[4,3-c]pyridin-1-yl)piperidin-1-yl)-4-oxobutyl)piperidin-4-yl)ethyl)-3-methyl-2-oxo-2,3-dihydro-1H-benzo[d]imidazol-1-yl)piperidine-2,6-dione], for which the inhibition at 0.01 µM at P300 [6] is above 80%. The same molecule showed a pIC50 in assay [7] of 8.85.
The like results for `CC(=O)N1CCc2c(c(N3CCCc4cc(-c5cnn(C)c5)c(C(F)F)cc43)nn2C2CCN(C(=O)CCCCCCCCC(=O)Nc3cccc(NC4CCC(=O)NC4=O)c3)CC2)C1` (centres unmarked) [P-264, 10-(4-(5-Acetyl-3-(7-(difluoromethyl)-6-(1-methyl-1H-pyrazol-4-yl)-3,4-dihydroquinolin-1(2H)-yl)-4,5,6,7-tetrahydro-1H-pyrazolo[4,3-c]pyridin-1-yl)piperidin-1-yl)-N-(3-((2,6-dioxopiperidin-3-yl)amino)phenyl)-10-oxodecanamide] were, in that order, below 20% and 6.31.
Take `CC(=O)N1CCc2c(c(N3CCCc4cc(-c5cnn(C)c5)c(C(F)F)cc43)nn2C2CCN(C(=O)CCN3CCC(CNc4ccc5c(c4)n(C)c(=O)n5C4CCC(=O)NC4=O)CC3)CC2)C1` (centres unmarked) [P-218, 3-(5-(((1-(3-(4-(5-Acetyl-3-(7-(difluoromethyl)-6-(1-methyl-1H-pyrazol-4-yl)-3,4-dihydroquinolin-1(2H)-yl)-4,5,6,7-tetrahydro-1H-pyrazolo[4,3-c]pyridin-1-yl)piperidin-1-yl)-3-oxopropyl)piperidin-4-yl)methyl)amino)-3-methyl-2-oxo-2,3-dihydro-1H-benzo[d]imidazol-1-yl)piperidine-2,6-dione]: on P300 [6], the inhibition at 0.01 µM was above 80%. The pIC50 in assay [7] is 7.73.
In the case of `CC(=O)N1CCc2c(c(N3CCCc4cc(-c5cnn(C)c5)c(C(F)F)cc43)nn2C2CCN(C(=O)CNc3ccc(C(=O)NC4CCC(=O)NC4=O)c4ncccc34)CC2)C1` (centres unmarked) [P-254, 5-((2-(4-(5-acetyl-3-(7-(difluoromethyl)-6-(1-methyl-1H-pyrazol-4-yl)-3,4-dihydroquinolin-1(2H)-yl)-4,5,6,7-tetrahydro-1H-pyrazolo[4,3-c]pyridin-1-yl)piperidin-1-yl)-2-oxoethyl)amino)-N-(2,6-dioxopiperidin-3-yl)quinoline-8-carboxamide], the inhibition at 0.01 µM at P300 [6] is above 80%. The same molecule showed a negative logarithm of the IC50 (pIC50) in assay [7] of 8.29.
The like results for `CC(=O)N1CCc2c(c(N3CCCc4cc(-c5cnn(C)c5)c(C(F)F)cc43)nn2C2CCN(C(=O)CCCN3CCN(CC#Cc4cccc5c4n(C)c(=O)n5C4CCC(=O)NC4=O)CC3)CC2)C1` (centres unmarked) [P-224, 3-(4-(3-(4-(4-(4-(5-acetyl-3-(7-(difluoromethyl)-6-(1-methyl-1H-pyrazol-4-yl)-3,4-dihydroquinolin-1(2H)-yl)-4,5,6,7-tetrahydro-1H-pyrazolo[4,3-c]pyridin-1-yl)piperidin-1-yl)-4-oxobutyl)piperazin-1-yl)prop-1-yn-1-yl)-3-methyl-2-oxo-2,3-dihydro-1H-benzo[d]imidazol-1-yl)piperidine-2,6-dione] were, in that order, above 80% and 8.00.
